Read-outs that look alike come from different tables or passages of the source.
Columns and labels:
[1] = test system: mechanical allodynia in rats; experiment: Mechanical allodynia in vivo assay (spinal nerve ligation); set-up: species or system rat; conditions: for analgesia against mechanical allodynia: oral administration; for ED50: Rattus norvegicus, sc
Method: This assay determines the effectiveness of compounds in relieving one of the symptoms of neuropathic pain produced by spinal nerve ligation, namely mechanical allodynia. The surgical procedure was performed essentially as described by Kim and Chung, Pain, (1992) 50:355-363. Briefly, the rats were anesthetized with an intraperitoneal dose of pentobarbital sodium (65 mg/kg) with additional doses of anesthetic given as needed. Each animal was then placed in a prone position, a 3 cm lateral incision was made, and the left paraspinal muscles separated from the spinous process at the L4 -S2 level. The L6 transverse process was then removed in order to visually identify the L4 -L6 spinal nerves. The L5 and L6 spinal nerves were then individually isolated and tightly ligated with silk thread. The wound was then closed in layers by silk sutures. Seven to 28 days post-surgery, a calibrated series of eight von Frey filaments were used to assess mechanical allodynia. Animals were housed individually in plexiglass cages with a wire mesh floor. Filaments of increasing stiffness were applied perpendicular to the midplantar surface in the sciatic nerve distribution areas of the left hindpaw and were slowly depressed (4-6 seconds) until bending occurred. The filament application order and number of trials were determined by the up-down method of Dixon (Chaplan, et al., J. Neurosci. Methods, (1994) 53:55-63). Flinching and licking of the paw and paw withdrawal on the ligated side were all considered positive responses. The 50% paw withdrawal threshold (g) was then calculated and compared to control. The doses for the acute and chronic studies were selected on the basis of prior assessment of the acute effects on the test compounds on the gross behavior in normal rats. Briefly, the rats were weighed and grouped into cages, dosed with the test compound, and observed continuously for changes in behavior. […] Pinna and corneal reflexes were tested by using a piece of natural hair from a brush that is attached to a glass rod. The righting reflexes were tested by placing the rat flat on its back, and recording the time it takes for the animal to right itself onto all four legs. The posture and gait were assessed by placing the rat on the floor.

cold allodynia in rats [2] = experiment: Cold allodynia in vivo assay (chronic constriction injury), acute studies; set-up: species or system rat; conditions: cold allodynia, subcutaneous, acute; for ED50: Rattus norvegicus, sc; for potency (ED50) comparison of (R)-isomers: in words
Method: (§1) This assay determines the effectiveness of compounds in relieving one of the symptoms of neuropathic pain produced by unilateral mononeuropathy, namely cold allodynia. Unilateral mononeuropathy was produced in rats using the Chronic Constriction Injury model performed essentially as described by Bennet and Xie, Pain, (1988) 33:87-107. Briefly, the rats were anesthetized with an intraperitoneal dose of pentobarbital sodium (65 mg/kg) with additional doses of anesthetic given as needed. The lateral aspect of each rat's hind limb was shaved and scrubbed with Novasan. Using aseptic technique, an incision was made on the lateral aspect of the hind limb at the mid-thigh level. The biceps femoris was bluntly dissected to expose the sciatic nerve. On the right hind limb of each rat, four loosely tied ligatures were made around the sciatic nerve approximately 1-2 millimeters apart. On the left side of each rat, an identical dissection was performed except that the sciatic nerve was not ligated. The muscle was closed with a continuous suture pattern, and the skin was closed with wound clips. Each rat was placed individually into a plexiglass chamber with a metal plate 6 cm from the bottom. This chamber was filled with ice water to a depth of 2.5 cm above the metal plate, with the temperature of the bath maintained at 0° C. throughout the experiment. A timer was started, and the rat's response latency was measured to the nearest tenth of a second. A "response" was defined as a rapid withdrawal of the right ligated hindpaw completely out of the water while the animal was stationary and not pivoting. An exaggerated limp while the animal was walking was not scored as a response. Maximum immersion time was 20 seconds with a 20 minute interval between trials. The screening criteria were 1) the average of two trials was less than or equal to 13 seconds, and 2) there was consistency across the two trial scores. Animals were screened for hypersensitivity to cold on post-surgery days 4 through 10, and selected for inclusion in dose-response studies based on the criteria described above. The pre-dose screening values were used as the animal's baseline cold allodynia scores. For acute studies, the animals received either subcutaneous or oral injections and were tested for cold allodynia at 1, 3, and sometimes 5 hours post-dose. The selection of doses was similar to that of Example 12C.

cold allodynia in rats [3] = experiment: Cold allodynia in vivo assay (chronic constriction injury), chronic studies; set-up: species or system rat; conditions: oral, chronic; (R)-enantiomer 10 and 20 mg/kg, sub-threshold
Method: as §1, with “chronic” for “acute”, “animals received subcutaneous or oral injections twice daily for 4 days and once on day 5. The animals were tested for allodynia on day 1 at 1, 3 and 5 hours following the 8 am dose, and at 5 hours following the 8 am dose on days 3 and 5. Two days later, the animals were tested for cold allodynia to assess whether there was a wash-out of the drug being tested. Following this screening for cold allodynia, the animals in two of the three chronic studies” for “animals”, “of the drug” for “and were tested for cold allodynia”, “a dose previously shown” for “1, 3, and sometimes 5 hours post-dose. The selection of doses was similar”, “produce significant anti-allodynic effects acutely. […]” for “that of Example 12C.”

[4] = Adverse effects / gross behavior on dosing; format: in vivo, rat; conditions: for doses with adverse side effects / behavioral problems / adverse side effects observed: cold allodynia acute study; for adverse side effects observed: doses higher than 60 mg/kg
Method: The doses for the acute and chronic studies were selected on the basis of prior assessment of the acute effects on the test compounds on the gross behavior in normal rats. Briefly, the rats were weighed and grouped into cages, dosed with the test compound, and observed continuously for changes in behavior. […] Pinna and corneal reflexes were tested by using a piece of natural hair from a brush that is attached to a glass rod. The righting reflexes were tested by placing the rat flat on its back, and recording the time it takes for the animal to right itself onto all four legs. The posture and gait were assessed by placing the rat on the floor.
The selection of doses was similar to that of Example 12C.

[5] = test system: voltage-gated sodium channels ([3H]BTX binding, rat cortex); experiment: [3H]BTX binding assay, rat cortex membranes; conditions: rat brain cortex membranes
Method: The following assays characterize the interaction of the compounds of Formula I with ligand binding sites on voltage-gated sodium channels.
Frozen tissues were obtained from Pel-Freez Biologicals (Rogers, AR). Tissues were homogenized in 10 volumes of a Tris-sucrose buffer (10 mM Tris-HCl, 250 mM sucrose, pH 7.4 at 4° C.) using 10 strokes with a glass-glass, hand-held homogenizer. The homogenates were filtered through nylon mesh and then centrifuged at 1,000×g for 15 minutes. The pellets were resuspended in a Hepes buffer (50 mM Hepes, 130 mM choline chloride, 5 mM glucose, 5.4 mM KCl, pH 7.4 at 4° C.). The resuspended pellets were centrifuged at 1,000×g for 15 minutes, resuspended in a Hepes buffer (50 mM Hepes, 130 mM choline chloride, 5 mM glucose, 5.4 mM KCl, pH 7.4 at 25° C.) and, frozen at -70° C. until used in binding assays.
Nonspecific binding was defined in the presence of 1 mM veratridine. Unless otherwise specified, PbTx (0.1 μM) and LqTx (50 μg/ml) were included in the assays. Membranes were incubated for 60 minutes at 25° C. and then filtered using GF/B glass fiber filters that had been pretreated with 0.3% PEI. Filters were rinsed with 3×1 ml of ice cold 50 mM Tris-HCl (pH 7.4 at 4° C.) and the bound radioactivity was determined by scintillation counting (Packard Top-count).

neuropathic pain models = experiment: Neuropathic pain models / standard assays (summary statements); format: in vivo; conditions: summary statement, (S)- vs (R)-enantiomer
[6] = mechanical allodynia, subcutaneous
[7] = subcutaneous, mechanical allodynia study

Row | SMILES | EDmax [1, 6] | maximal analgesic activity (Emax) [1, 6] | analgesia against mechanical allodynia [1] | ED50 (cold allodynia in rats [2]; 1 hr, read-out: ED50 1 hr) | ED50 (cold allodynia in rats [2]; 3 hr, read-out: ED50 3 hr) | Emax 1 hr (cold allodynia in rats [2]; 1 hr) | Emax 3 hr (cold allodynia in rats [2]; 3 hr) | ED50 [1, 6] | doses with adverse side effects / behavioral problems ([4]; subcutaneous) | adverse side effects observed ([4]; subcutaneous) | potency (ED50) comparison of (R)-isomers (cold allodynia in rats [2]) | also measured
1 | Cc1cccc(C)c1OCC(C)N (racemic) [Formula II racemate, 2-(2,6-Dimethylphenoxy)-1-methyl-ethylamine, reference compound] | 29% | 29% | did not produce analgesia | 29.8 mg/kg | 33.6 mg/kg | 73% | 80% |  |  |  |  | anti-allodynic effect after chronic oral dosing (cold allodynia in rats [3]): no anti-allodynic effect
2 | CNC(C)COc1c(C)cccc1C (racemic) [Formula III racemate, [2-(2,6-dimethylphenoxy)-1-methylethyl]-methylamine] | 67% | 67% |  |  |  |  |  | 31.3 mg/kg |  |  |  | 
3 | CCCNC(C)COc1c(C)cccc1C (racemic) [Formula IV racemate, [2-(2,6-Dimethylphenoxy)-1-methylethyl]-propylamine, reference compound] |  |  |  |  |  |  |  | > 30 mg/kg |  |  |  | potency (ED50) comparison ([1]; mechanical allodynia, subcutaneous, in words): less potent than compound III; adverse events [4, 7]: adverse events; dose at which adverse events occur [4, 7]: 60 mg/kg; adverse events ([4]; subcutaneous, mechanical allodynia study, listed as Compound IV): convulsions and severe ataxia
4 | CCN[C@@H](C)COc1c(C)cccc1C [Formula I (S)-, (S)-[2-(2,6-dimethylphenoxy)-1-methylethyl]-ethylamine] |  |  | did not produce analgesia | 12.8 mg/kg | 10 mg/kg | 100% | 58% |  | higher than 60 mg/kg | convulsions and immobility |  | potency of (R)- versus (S)-enantiomer in inhibiting [3H]BTX binding [5]: no difference in the potencies; doses with adverse side effects ([4]; oral administration, mechanical allodynia study): greater than 60 mg/kg; deleterious side effects (neuropathic pain models): deleterious side effects are largely confined to the (S)-enantiomer
5 | CN[C@H](C)COc1c(C)cccc1C [Formula III (R)-, [2-(2,6-dimethylphenoxy)-1-methylethyl]-methylamine, reference compound] |  |  |  | 26.1 mg/kg | 31.4 mg/kg | 76% | 74% |  |  |  | comparable potency | 
6 | CCCN[C@H](C)COc1c(C)cccc1C [Formula IV (R)-, [2-(2,6-Dimethylphenoxy)-1-methylethyl]-propylamine, reference compound] |  |  |  | 28.4 mg/kg | 29.9 mg/kg | 74% | 74% |  | higher than 60 mg/kg | splayed limbs and abnormal righting reflexes | comparable potency | 

— patent publication US5688830A, “Treatment of neuropathic pain” (Syntex (U.S.A.) Inc., priority 1997, dated 1997)
